{"source": "patent US6956039B2", "about": "“Nitrogenous heterocylic compounds” (Millennium Pharmaceuticals, Inc., priority 2000, dated 2005)", "key": {"[1]": {"target": "T1, β-PDGFR (Homo sapiens, UniProt P09619)", "T1 sequence (P09619 33-1106)": "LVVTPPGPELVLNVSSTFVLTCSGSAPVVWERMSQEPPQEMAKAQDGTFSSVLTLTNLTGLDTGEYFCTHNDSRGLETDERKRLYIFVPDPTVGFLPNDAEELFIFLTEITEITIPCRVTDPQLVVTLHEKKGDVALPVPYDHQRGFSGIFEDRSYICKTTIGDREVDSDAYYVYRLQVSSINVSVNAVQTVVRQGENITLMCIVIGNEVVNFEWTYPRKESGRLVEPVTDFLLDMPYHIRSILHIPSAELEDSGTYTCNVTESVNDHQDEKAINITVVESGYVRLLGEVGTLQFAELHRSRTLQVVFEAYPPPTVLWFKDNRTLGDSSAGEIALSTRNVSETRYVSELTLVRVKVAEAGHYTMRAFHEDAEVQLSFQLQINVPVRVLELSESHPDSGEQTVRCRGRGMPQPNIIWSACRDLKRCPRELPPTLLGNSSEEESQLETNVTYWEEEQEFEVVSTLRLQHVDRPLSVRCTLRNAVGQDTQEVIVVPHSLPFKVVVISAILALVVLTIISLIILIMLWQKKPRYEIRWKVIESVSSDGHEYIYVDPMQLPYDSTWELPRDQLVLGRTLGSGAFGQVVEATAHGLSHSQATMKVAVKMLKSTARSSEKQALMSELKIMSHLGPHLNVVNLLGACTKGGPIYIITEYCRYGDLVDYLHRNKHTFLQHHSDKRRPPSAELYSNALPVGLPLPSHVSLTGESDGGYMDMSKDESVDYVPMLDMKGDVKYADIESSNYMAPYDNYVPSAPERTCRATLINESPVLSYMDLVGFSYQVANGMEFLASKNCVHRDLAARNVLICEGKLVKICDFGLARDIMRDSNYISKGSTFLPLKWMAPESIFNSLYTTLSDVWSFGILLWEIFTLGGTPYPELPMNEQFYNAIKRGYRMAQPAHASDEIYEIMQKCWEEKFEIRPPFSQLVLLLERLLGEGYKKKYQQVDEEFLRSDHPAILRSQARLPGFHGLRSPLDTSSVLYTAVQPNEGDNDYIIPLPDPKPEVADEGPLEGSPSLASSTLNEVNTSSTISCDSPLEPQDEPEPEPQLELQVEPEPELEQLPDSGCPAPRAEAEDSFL", "assay": "HR5 phosphorylation assay (CHO cells overexpressing human β-PDGFR)", "assay_type": "cell-based", "set-up": "host or cells: CHO cells (HR5 line)", "conditions": "8 nM PDGF BB for 10 minutes, PDGF receptor phosphorylation", "protocol": "The HR5 cell line is a cell line of CHO cells engineered to overexpress human β-PDGFR, which cell line is available from the ATCC. The expression level of β-PDGFR in HR5 cells is around 5×10^4 receptor per cell. For the phosphorylation assay according to the invention, HR5 cells were grown to confluency in 96-well microtiter plates under standard tissue culture conditions, followed by serum-starvation for 16 hours. Quiescent cells were incubated at 37° C. without or with increasing concentrations of the test compound (0.01-30 uM) for 30 minutes followed by the addition of 8 nM PDGF BB for 10 minutes. Cells were lysed in 100 mM Tris, pH7.5, 750 mM NaCl, 0.5% Triton X-100, 10 mM sodium pyrophosphate, 50 mM NaF, 10 ug/ml aprotinin, 10 ug/ml leupeptin, 1 mM phenylmethylsulfonyl fluoride, 1 mM sodium vanadate, and the lysate was cleared by centrifugation at 15,000×g for 5 minutes. Clarified lysates were transferred into a second microtiter plate in which the wells were previously coated with 500 ng/well of 1B5B11 anti-β-PDGFR mAb, and then incubated for two hours at room temperature. […] Wells were washed prior to adding ABTS (Sigma), and the rate of substrate formation was monitored at 650 nm."}, "[2]": {"target": "T1, β-PDGFR", "assay": "MG63 phosphorylation assay (endogenous β-PDGFR phosphorylation, PDGF-BB stimulation with human plasma)", "assay_type": "cell-based", "set-up": "This assay is for measuring endogenous β-PDGFR phosphorylation in MG63 cells; endogenous in cells; host or cells: MG63 human osteosarcoma cells (ATCC)", "conditions": "MG63 human osteosarcoma cells; PDGF-BB stimulation in presence of 45% human plasma; PDGF receptor phosphorylation; read-out: MG63 w/human plasma IC50", "protocol": "For the phosphorylation assay according to the invention, HR5 cells were grown to confluency in 96-well microtiter plates under standard tissue culture conditions, followed by serum-starvation for 16 hours. Quiescent cells were incubated at 37° C. without or with increasing concentrations of the test compound (0.01-30 uM) for 30 minutes followed by the addition of 8 nM PDGF BB for 10 minutes. Cells were lysed in 100 mM Tris, pH7.5, 750 mM NaCl, 0.5% Triton X-100, 10 mM sodium pyrophosphate, 50 mM NaF, 10 ug/ml aprotinin, 10 ug/ml leupeptin, 1 mM phenylmethylsulfonyl fluoride, 1 mM sodium vanadate, and the lysate was cleared by centrifugation at 15,000×g for 5 minutes. Clarified lysates were transferred into a second microtiter plate in which the wells were previously coated with 500 ng/well of 1B5B11 anti-β-PDGFR mAb, and then incubated for two hours at room temperature. After washing three times with binding buffer (0.3% gelatin, 25 mM Hepes pH 7.5, 100 mM NaCl, 0.01% Tween-20), 250 ng/ml of rabbit polyclonal anti-phosphotyrosine antibody (Transduction Laboratory) was added and plates were incubated at 37° C. for 60 minutes. […] Wells were washed prior to adding ABTS (Sigma), and the rate of substrate formation was monitored at 650 nm. […]"}}, "data": [{"smiles": "c1nc(N2CCNCC2)c2ccc(OCCN3CCCCC3)cc2n1", "note": "[Example 1, 4-piperazinyl-7-(2-piperidylethoxy)quinazoline]", "values": [{"measurement": "IC50", "setting": "[1]", "result": 150, "unit": "nM"}, {"measurement": "IC50", "setting": "[2]", "result": 103, "unit": "nM"}]}]}
